The values that follow come from patent US6916849B2, “Compositions for improving lipid content in the blood” (priority 2000, dated 2005).

Data set [1] relates to total cholesterol in the serum. Nature of the data set: Evaluation of serum lipid level: total cholesterol in serum of beagle dogs after oral administration for 11 days (CEH-COD-POD method). To be noted: oral capsule once daily, pravastatin 2 mg/kg, mean of 5 dogs.
From the text: (§1) Pravastatin with a purity of 99.4%, manufactured at Sankyo Co. Ltd., was employed in the study.
(§2) Male beagle dogs were purchased at 5 months old from Covance Research Products Inc., as the test animals, and were used after quarantine and acclimatization periods of approximately 1 month.
(§3) The required amounts of pravastatin or each combination drug as calculated based on the body weight of each animal were placed in a gelatin capsule (½-ounce volume) purchased from TORPAC Co. Capsules filled with pravastatin were stored in a cold room and with combination drugs at room temperature until use.
(§4) Combination drugs were put in identical geltin capsules.
(§5) Capsules filled with pravastatin or combination drugs were orally administered once daily between 9:00 and 12:30 to the test animals. All test animals were fasted 2-3 hr prior to administration. The administration period was 11 successive days.
(§6) Approximately 10 ml of blood were collected from the cephalic vein on 14 and 7 days before administration (2 and one week before the drug administration) and 4, 8, and 12 days after administration of the capsules. The animals were fasted for approximate 18 hr prior to blood collection. Collected blood was placed into test tubes and left for 0.5-1 hr at room temperature. The test tubes were then centrifuged at 3,000 rpm for 10 min to isolate serum. Levels of total cholesterol and ALP in the serum were determined by the CEH-COD-POD and Bessey-Lowry methods, respectively.
(§7) For quantitative analyses, an automatic analyzer, Monarch (Instrumentation Laboratory), was used.
(§8) Each value represents the mean value calculated from 5 animals.
Data set [2] deals with ALP in the serum. To be noted: oral capsule once daily, pravastatin 2 mg/kg, riboflavin acetate 6 mg/kg, relative to pre-administration average (100), mean of 5 dogs.
From the text: as §1, §2, §3, §4, §5, §6, §7, §8
[3] abbreviates: ascorbic acid 50 mg/kg, relative to pre-administration average (100).
Setting [4] is: d-α-tocopherol acetate 10 mg/kg, ascorbic acid 50 mg/kg, relative to pre-administration average (100).
Setting [5] is: d-α-tocopherol acetate 10 mg/kg, relative to pre-administration average (100).
The mark [6] stands for this setting: riboflavin acetate 6 mg/kg, relative to pre-administration average (100).

Turning to `O=C1O[C@H]([C@@H](O)CO)C(O)=C1O` [Ascorbic acid, ascorbic acid], in data set [1] (setting [3]), the “Total Cholesterol Level in Serum After Administration, 4 days” value (shortened to “Total Cholesterol Level … 4 days”) came out at 98.7; the “Total Cholesterol Level in Serum After Administration, 8 days” value (from here on “Total Cholesterol Level … 8 days”) is reported as 98.2; the “Total Cholesterol Level in Serum After Administration, 12 days” value (“Total Cholesterol Level … 12 days” for short) is on record as 103.4.
Consider `CC(=O)Oc1c(C)c(C)c2c(c1C)CC[C@@](C)(CCC[C@H](C)CCC[C@H](C)CCCC(C)C)O2` [d-α-tocopherol acetate], for which, in data set [1] (setting [4]), the “Total Cholesterol Level … 4 days” value was determined as 97.8; the “Total Cholesterol Level … 8 days” value was found to be 96.4; the “Total Cholesterol Level … 12 days” value was 96.1. In data set [1] (setting [5]), the “Total Cholesterol Level … 4 days” value turned out to be 96.3; the “Total Cholesterol Level … 8 days” value is 92.8; the “Total Cholesterol Level … 12 days” value turned out to be 95.9.
Regarding Riboflavin acetate, the “ALP level (after administration), 4 days” value in data set [2] (4 days) is 98.1. The “ALP level (after administration), 8 days” value in data set [2] (8 days) is 98.8. Further, the “ALP level (after administration), 12 days” value in data set [2] (12 days) stood at 93.9. Also, the “Total Cholesterol Level … 4 days” value in data set [1] (riboflavin acetate 6 mg/kg, relative to average level 2 and 1 week before administration (100)) is 103.9. In addition, in data set [1] (setting [6]), the “Total Cholesterol Level … 8 days” value is reported as 101.6 and the “Total Cholesterol Level … 12 days” value is on record as 100.5.
